Legend:
mouse [1] = experiment: Light dark box test; type: in vivo; details: for NUMBER OF CROSSINGS % change from control: mouse
From the text: The method, which detects anxiolytic activity, follows that described by Crawley, 1981 Pharmacol. Biochem. Behav., 15:695-699. Anxiolytics increase the time spent in the light compartment.
Animals were placed into the light compartment of a 2-compartment box with one half light and open (25×27×27 cm) and the other half dark and closed (20×27×27 cm). The time spent in each compartment as well as the number of times the animal crosses from one side to the other is scored during a 3-minute test. 15 mice were studied per group. The test was performed blind.
Carnosic acid was evaluated at 3 doses (100, 200, 400 mg/kg BW), administered by oral gavage (p.o.) 24, 5 and 1 hour before the test, and compared with a vehicle control group (corn oil). Carnosic acid was dissolved in corn oil (“vehicle”). Clobazam (32 mg/kg p.o.), administered 1 hour before the test, was used as reference substance. Mice in this group received additional administrations of vehicle at 24 and 5 hours before the test in order to maintain experimental blinding.

[2] = target: T1, human dopamine transporter (hDAT) (Homo sapiens, UniProt Q01959); experiment: Inhibition of dopamine reuptake into transfected CHO-Ki/hDAT cells; type: cell-based; details: 50 nM [3H]Dopamine
T1 construct: expressed in transfected cells; host or cells: CHO-Ki (so in the source)
T1 sequence (Q01959 whole entry): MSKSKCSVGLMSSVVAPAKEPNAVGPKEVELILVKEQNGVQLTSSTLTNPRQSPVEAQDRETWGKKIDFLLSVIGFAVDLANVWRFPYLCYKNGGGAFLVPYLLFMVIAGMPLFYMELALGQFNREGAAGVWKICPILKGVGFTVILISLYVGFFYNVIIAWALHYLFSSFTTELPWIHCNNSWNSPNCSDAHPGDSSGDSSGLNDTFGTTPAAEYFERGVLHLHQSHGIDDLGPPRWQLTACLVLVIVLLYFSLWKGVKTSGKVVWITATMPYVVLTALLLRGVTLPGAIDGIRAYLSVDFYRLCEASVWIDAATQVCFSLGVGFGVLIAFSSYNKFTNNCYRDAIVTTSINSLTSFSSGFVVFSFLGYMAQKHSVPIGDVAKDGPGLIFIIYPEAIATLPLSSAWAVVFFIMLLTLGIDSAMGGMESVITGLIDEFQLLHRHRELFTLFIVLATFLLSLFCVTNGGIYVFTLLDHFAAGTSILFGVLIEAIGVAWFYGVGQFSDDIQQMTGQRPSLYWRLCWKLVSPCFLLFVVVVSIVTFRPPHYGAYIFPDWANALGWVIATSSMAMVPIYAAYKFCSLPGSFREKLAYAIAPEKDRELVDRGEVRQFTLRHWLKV
Experimental: CHO-Ki/hDAT cells expressing the human dopamine transporter (hDAT) were plated before the assay. Cells (2×10^5/ml) were incubated with carnosic acid and/or vehicle in modified Tris-HEPES buffer, pH 7.1, at 25° C. for 20 minutes before addition of 50 nM [^3H]Dopamine for 10 minutes. Specific signal was determined in the presence of 10 μM nomifensine (dopamine reuptake inhibitor). Cells were then solubilised with 1% SDS lysis buffer. Reduction of [^3H]Dopamine uptake by 50 per cent or more (≧50%) relative to vehicle controls indicated significant inhibitory activity.

mouse [3] = experiment: Marble burying test; type: in vivo; details: mouse; for NUMBER OF MARBLES COVERED BY SAWDUST % change from control / NUMBER OF MARBLES COVERED BY SAWDUST mean ± s.e.m.: Table 5
Experimental: The method applied here follows that described by Broekkamp et al., supra. Mice (n=15 per treatment group) were individually placed in transparent plastic cages (33×21×18 cm) with 5 cm of sawdust on the floor and 25 marbles (diameter 1 cm) grouped in the centre of the cage. A second, up-turned, cage served as a lid. The number of marbles covered by sawdust (by at least two-thirds) was counted at the end of the 30-minute test period. Tests were performed by investigators blind to the drug treatment protocol.
Prior to testing, all test cages and marbles were “impregnated” by leaving 10 naive mice in each cage for 15 minutes. […]
Data were analysed by comparing treated groups with vehicle control using unpaired Student's t-tests.

SMILES: CC(C)c1cc2c(c(O)c1O)[C@@]1(C(=O)O)CCCC(C)(C)[C@@H]1CC2 [Carnosic acid, carnosic acid]
- NUMBER OF CROSSINGS % change from control (mouse [1]; 100 mg/kg p.o. −24, −5, −1 h): +17%
- NUMBER OF CROSSINGS % change from control (mouse [1]; 200 mg/kg p.o., −24, −5, −1 h): −21%
- NUMBER OF CROSSINGS % change from control (mouse [1]; 400 mg/kg p.o. −24, −5, −1 h): +23%
- number of crossings (in words) (mouse [1]; mouse, 100, 200 and 400 mg/kg p.o.): did not affect
- IC50 [2]: 15 µM
- NUMBER OF MARBLES COVERED BY SAWDUST % change from control (mouse [3]; 3 mg/kg i.p. −30 min): −8%
- NUMBER OF MARBLES COVERED BY SAWDUST mean ± s.e.m. (mouse [3]; 3 mg/kg i.p. −30 min): 21.9 ± 1.3
- NUMBER OF MARBLES COVERED BY SAWDUST % change from control (mouse [3]; 10 mg/kg i.p. −30 min): −4%
- NUMBER OF MARBLES COVERED BY SAWDUST mean ± s.e.m. (mouse [3]; 10 mg/kg i.p. −30 min): 22.7 ± 0.5
- NUMBER OF MARBLES COVERED BY SAWDUST % change from control (mouse [3]; 30 mg/kg i.p. −30 min): −63%
- NUMBER OF MARBLES COVERED BY SAWDUST mean ± s.e.m. (mouse [3]; 30 mg/kg i.p. −30 min): 8.7 ± 2.9
- marble burying behaviour (in words) (mouse [3]; highest dose tested (30 mg/kg) i.p.): clearly and significantly reduced marble burying behaviour
